{
  "source": "patent US20230257374A1",
  "about": "“NOVEL KRAS G12C PROTEIN INHIBITOR, PREPARATION METHOD THEREFOR, AND USE THEREOF” (INNOVENT BIOLOGICS (SUZHOU) CO., LTD., priority 2019, published 2023)",
  "key": {"KRAS G12C protein": {"biological_target": "T1, KRAS G12C protein (Homo sapiens, UniProt P01116, G12C)", "T1 construct": "H358 cells (ATCC, CRL-5807) expressing KRAS G12C protein; host or cells: H358 (NCI-H358) cells", "T1 sequence (P01116 1-188 isoform P01116-2 G12C)": "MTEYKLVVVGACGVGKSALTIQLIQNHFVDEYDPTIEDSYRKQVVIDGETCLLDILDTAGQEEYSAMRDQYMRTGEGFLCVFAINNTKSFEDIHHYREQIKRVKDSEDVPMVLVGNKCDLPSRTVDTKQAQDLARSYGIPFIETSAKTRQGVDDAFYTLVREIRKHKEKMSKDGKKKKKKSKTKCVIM", "test": "ERK protein phosphorylation assay (p-ERK) in H358 cells", "type": "cell-based", "set-up": "scale not given here", "details": "H358 cells expressing KRAS G12C protein, 3 h incubation with compound; read-out: IC50, inhibiting phosphorylation of KRAS G12C protein-mediated downstream signaling (p-ERK)", "in_short": "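After paraformaldehyde fixation and methanol permeabilization, phospho-ERK detected by immunofluorescence read on an Odyssey CLx imager.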"}, "[1]": {"system": "H358 cell line (K-RAS G12C)", "test": "cells", "type": "cell-based, human", "details": "for IC50: Homo sapiens, NCI-H358, 96 h, 3D culture, CellTiter-Glo 3D, read on day 4, read-out: H358 (K-RAS G12C) IC50; for Selectivity (fold number of mutant vs. wild type): PC-9 IC50 vs. H358 IC50", "experimental": "(§1) a) On day 1, seed cells were placed in T75 a flask. b) On day 3, the medium was taken out and washed once with DPBS. c) Cells were trypsinized with 2 mL TrypLE™ Express enzyme at room temperature (RT) or 37° C. until cells detached. d) 5 mL of fresh medium was added to suspend the cells, and then the suspension was centrifuged at 1000 rpm and room temperature for 5 min. e) The supernatant was discarded, and the cells were resuspended in 5 mL of fresh medium and counted using Countess™ H. f) The cells were seeded back into the T75 flask for further culture or placed into an assay plate for 3D cell proliferation assay.\n(§2) The cells were seeded at a density of 600 cells/well in a 384-well plate with 40 μL of medium per well and a final DMSO concentration of 0.5%. b) On day 4, a 3D CTG reagent was added to each well, followed by shaking at room temperature for 1 h. c) The signals were recorded using Envision.\n(§3) a) Robustness was examined using 0.5% DMSO and data of blank control medium: H=mean (DMSO); L=mean (medium); SD (H)=STDEV (DMSO); SD (L)=STDEV (medium);\n(§4) Y=peak valley value+(peak top value−peak valley value)/(1+10^((Log IC50−X)×HillSlope));\n(§5) X: logarithm of compound concentration; Y: percent inhibition (% inhibition); Peak top and peak valley values: the plateau period units are the same as Y; log IC50: the same logarithmic unit as X; HillSlope: slope coefficient or Hill slope."}, "in vitro": {"test": "in vitro", "details": "microsomes, pH 7.4"}, "[2]": {"system": "H1373 cell line (K-RAS G12C)", "test": "cells", "type": "cell-based", "details": "for IC50: Homo sapiens, NCI-H1373, 96 h, 3D culture, CellTiter-Glo 3D, read on day 4, read-out: H1373 (K-RAS G12C) IC50; for Selectivity (fold number of mutant vs. wild type): PC-9 IC50 vs. H1373 IC50", "experimental": "as §1, §2, §3, §4, §5"}, "[3]": {"system": "PC-9 cell line (K-RAS wild type)", "test": "cells", "type": "cell-based", "details": "Homo sapiens, PC-9, 96 h; 3D culture, CellTiter-Glo 3D, read on day 4", "experimental": "as §1, §2, §3, §4, §5"}, "[4]": {"system": "MIA PaCa-2 cell line (K-RAS G12C)", "test": "cells", "type": "cell-based", "details": "for IC50: Homo sapiens, MIA PaCa-2, 96 h, 3D culture, CellTiter-Glo 3D, read on day 4, read-out: MIA PaCa-2 (K-RAS G12C) IC50; for Selectivity (fold number of mutant vs. wild type): PC-9 IC50 vs. MIA PaCa-2 IC50", "experimental": "as §1, §2, §3, §4, §5"}, "[5]": {"test": "Stability test in human plasma", "details": "for Remaining percentage (%) 0 min / Remaining percentage (%) 30 min / Remaining percentage (%) 60 min / Remaining percentage (%) 120 min / Remaining percentage (%) 180 min / Remaining percentage (%) 240 min: human plasma, 37° C.; for half-life at 5 μM: human, plasma", "method": "To examine the stability of the test compounds in plasma, representative compounds were selected for evaluation.\nPreparation of stock solution: a test compound was dissolved in DMSO to prepare a 1 mM stock solution for later use; Propantheline Bromide was dissolved in acetonitrile to prepare a 1 mM stock solution as a positive control for later use.\nTo each well was added 2 μL of the stock solution of the test compound and the stock solution of the positive control such that the final concentrations were 5 KM and the concentration of the organic solvent was 0.5%. Each compound was prepared in duplicate, followed by incubation at 37° C. 50 μL of samples were taken from the reaction samples in equal amounts at 0, 30, 60, 120, 180 and 240 minutes, and 450 μL of cold acetonitrile containing an internal standard was added to terminate the reaction. […] 100 μL of the supernatants were transferred to a new plate, dilute with ultra-pure water, and analyzed by LC-MS/MS.\nData results were calculated according to peak area ratios.\nThe percentage of remaining compound for each time point was calculated as follows:\nRemaining percentagemin(%)=peak area ratiosmin/peak area ratiomin×100%\nwhere peak area ratios represents the peak area ratio of the test compound to the internal standard compound at t min; peak area ratiomin represents the peak area ratio of the test compound to the internal standard compound at 0 min (initial)."}},
  "data": [
    {"smiles": "[2H]C([2H])([2H])c1cccc2cccc(N3CCc4c(nc(OC[C@@H]5CCCN5C)nc4N4CCN(C(=O)C=C)[C@@H](CC#N)C4)C3)c12", "note": "[Compound 1, 2-((S)-1-acryloyl-4-(7-(8-(methyl-d3)naphthalen-1-yl)-2-(((S)-1-methylpyrrolidin-2-yl)methoxy)-5,6,7,8-tetrahydropyrido[3,4-d]pyrimidin-4-yl)piperazin-2-yl)acetonitrile]", "values": [
      {"measurement": "IC50", "setting": "KRAS G12C protein", "result": "< 1000", "unit": "nM"},
      {"measurement": "IC50", "setting": "[1]", "result": 0.55, "unit": "nM"},
      {"measurement": "Selectivity (fold number of mutant vs. wild type)", "setting": "[1]", "result": 8745, "unit": "fold"},
      {"measurement": "half-life at 1 μM", "setting": "in vitro; ICR (CD-1), mouse", "result": 20.9, "unit": "min"},
      {"measurement": "microsomal CLint at 1 μM", "setting": "in vitro; ICR (CD-1), mouse", "result": 66.5, "unit": "µL/min/mg"},
      {"measurement": "half-life at 1 μM", "setting": "in vitro; human", "result": 29.3, "unit": "min"},
      {"measurement": "microsomal CLint at 1 μM", "setting": "in vitro; human", "result": 47.3, "unit": "µL/min/mg"},
      {"measurement": "IC50", "setting": "[2]", "result": 0.68, "unit": "nM"},
      {"measurement": "Selectivity (fold number of mutant vs. wild type)", "setting": "[2]", "result": 7074, "unit": "fold"},
      {"measurement": "IC50", "setting": "[3]", "result": 4810, "unit": "nM"},
      {"measurement": "IC50", "setting": "[4]", "result": 0.49, "unit": "nM"},
      {"measurement": "Selectivity (fold number of mutant vs. wild type)", "setting": "[4]", "result": 9816, "unit": "fold"},
      {"measurement": "Remaining percentage (%) 0 min", "setting": "[5]", "result": 100.00, "unit": "%"},
      {"measurement": "Remaining percentage (%) 30 min", "setting": "[5]", "result": 92.80, "unit": "%"},
      {"measurement": "Remaining percentage (%) 60 min", "setting": "[5]", "result": 76.27, "unit": "%"},
      {"measurement": "Remaining percentage (%) 120 min", "setting": "[5]", "result": 58.94, "unit": "%"},
      {"measurement": "Remaining percentage (%) 180 min", "setting": "[5]", "result": 39.27, "unit": "%"},
      {"measurement": "Remaining percentage (%) 240 min", "setting": "[5]", "result": 25.75, "unit": "%"},
      {"measurement": "half-life at 5 μM", "setting": "[5]", "result": 122, "unit": "min"}
    ]},
    {"smiles": "[2H]C([2H])([2H])N1CCC[C@H]1COc1nc2c(c(N3CCN(C(=O)C=C)[C@@H](CC#N)C3)n1)CCN(c1cccc3cccc(C)c13)C2", "note": "[Compound 42, 2-((S)-1-acryloyl-4-(7-(8-methylnaphthalen-1-yl)-2-(((S)-1-(methyl-d3)pyrrolidin-2-yl)methoxy)-5,6,7,8-tetrahydropyrido[3,4-d]pyrimidin-4-yl)piperazin-2-yl)acetonitrile]", "values": [
      {"measurement": "IC50", "setting": "KRAS G12C protein", "result": "< 1000", "unit": "nM"},
      {"measurement": "IC50", "setting": "[1]", "result": 0.62, "unit": "nM"},
      {"measurement": "Selectivity (fold number of mutant vs. wild type)", "setting": "[1]", "result": 3823, "unit": "fold"},
      {"measurement": "half-life at 1 μM", "setting": "in vitro; ICR (CD-1), mouse", "result": 22.8, "unit": "min"},
      {"measurement": "microsomal CLint at 1 μM", "setting": "in vitro; ICR (CD-1), mouse", "result": 60.9, "unit": "µL/min/mg"},
      {"measurement": "half-life at 1 μM", "setting": "in vitro; human", "result": 27.2, "unit": "min"},
      {"measurement": "microsomal CLint at 1 μM", "setting": "in vitro; human", "result": 51, "unit": "µL/min/mg"},
      {"measurement": "IC50", "setting": "[2]", "result": 0.26, "unit": "nM"},
      {"measurement": "Selectivity (fold number of mutant vs. wild type)", "setting": "[2]", "result": 9115, "unit": "fold"},
      {"measurement": "IC50", "setting": "[3]", "result": 2370, "unit": "nM"},
      {"measurement": "IC50", "setting": "[4]", "result": 0.51, "unit": "nM"},
      {"measurement": "Selectivity (fold number of mutant vs. wild type)", "setting": "[4]", "result": 4647, "unit": "fold"},
      {"measurement": "Remaining percentage (%) 0 min", "setting": "[5]", "result": 100.00, "unit": "%"},
      {"measurement": "Remaining percentage (%) 30 min", "setting": "[5]", "result": 90.36, "unit": "%"},
      {"measurement": "Remaining percentage (%) 60 min", "setting": "[5]", "result": 77.31, "unit": "%"},
      {"measurement": "Remaining percentage (%) 120 min", "setting": "[5]", "result": 57.19, "unit": "%"},
      {"measurement": "Remaining percentage (%) 180 min", "setting": "[5]", "result": 36.19, "unit": "%"},
      {"measurement": "Remaining percentage (%) 240 min", "setting": "[5]", "result": 27.49, "unit": "%"},
      {"measurement": "half-life at 5 μM", "setting": "[5]", "result": 123, "unit": "min"}
    ]}
  ]
}
